Like-named read-outs stand apart in the source and are kept apart here.
What was measured:
Assay type in all cases: cell-based
[1] = test system: mTNF-α secretion from LPS-stimulated RAW264.7 monocytes; assay: LPS induced mTNF-α release from RAW264.7 cells (ELISA); details: Mus musculus
Description: To confirm whether the inhibitory effect of the selected compounds of example 2.1 (i.e., Compounds 12, 15, 19, 20, 22, 24, 28, 30, 32, 34, 36, 38, 40, 42, 44, 45, 49, 50, 52 and 70) translates to anti-inflammation, they were further tested to see if any of them may suppress mTNF-α secretion from lipopolysaccharide (LPS)-stimulated RAW264.7 monocytes.
To this purpose, RAW264.7 cells were seeded at 1.6×10^5 cells/well into 96-well culture plates. Test compounds (i.e., Compounds 12, 15, 19, 20, 22, 24, 28, 30, 32, 34, 36, 38, 40, 42, 44, 45, 49, 50, 52 and 70, respectively at 10 μM) were added into the culture plates in triplicate and co-cultured at 37° C. in 5% CO2 for 30 minutes. LPS (final conc. 10 ng/ml/well) was then added into the culture plates and the cells were incubated for another 4 hours. At the end of culture, the cultured media were harvested for mTNF-α quantification by ELISA with commercial assay kits (R&D Systems, Minneapolis, Minn.) following the manufacturer's protocol. Signals of the individual samples in 96-well plates were detected at O.D.450 nm/570 nm with a Molecular Devices SpectraMax i3 Imaging Cytometer. The mTNF-α activity was expressed in percentage of viable LPS-stimulated cells without test compound treatment.

HEK293 cells = assay: Cell viability (MTT) of the TLR4-expressing HEK293 cells; details: percentage of viable LPS-stimulated cells
Description: (§1) RAW264.7 cells (1.6×10^5 cells/well) or HEK 293 cells (2.5-5.0×10^4 cells/well) were seeded in 96-well plate overnight and treated with different compounds for 16-24 hours. Cells' growth were determined by MTT-based colorimetric assays. Viability of the test cells treated with vehicle (0.5% DMSO) only was defined as 100% viable. Survival of cells after treatment with DETDs was calculated using the following formula: viable cell number (%)=OD570 (treated cell culture)/OD570 (vehicle control)×100.
The cell viability assay was performed by the MTT method. Cells were incubated with 45 μl of 5 mg/ml MTT for 1 hour at 37° C., and 150 μl of DMSO was added at the end of culture to dissolve the crystals. The signals of individual samples in 96-well plates were detected at O.D.570 nm with a Molecular Devices SpectraMax i3 Imaging Cytometer. Cell viability was expressed in percentage of viable LPS-stimulated cells.

RAW264.7 cells = assay: Cell viability (MTT) of RAW264.7 cells; details: for toxic activity toward RAW264.7 cells (in words): Table 2, 10 μM; for Cell Viability (%) mean: Test Con. 10 μM, MTT, RAW264.7 cells, percentage of viable LPS-stimulated cells
Description: as §1
The cell viability assay was performed by the MTT method, in which cells were incubated with 45 μl of 5 mg/ml MTT for 1 hour at 37° C., and 150 μl of DMSO was added at the end of culture to dissolve the crystals. The signals of individual samples in 96-well plates were detected at O.D.570 nm with a Molecular Devices SpectraMax i3 Imaging Cytometer. Cell viability was expressed in percentage of viable LPS-stimulated cells.

[2] = biological target: T1, Toll-like receptor 4 (TLR4) (Homo sapiens, UniProt O00206); assay: TLR4 activity: NF-κB-inducible SEAP reporter in LPS-stimulated TLR4-expressing HEK293 cells; details: for inhibition at 10 µM: Test Con. 10 μM; for inhibition at 10 µM / inhibition at 100 µM / inhibition at 20 µM: LPS 10 ng/ml, 16-24 hours, HEK293 cells expressing TLR4, read-out: TLR-4 inhibition (%) mean; for activity towards TLR-4 (in words): summary of Table 1 (10, 20 or 100 μM); for inhibition at 100 µM: Test Con. 100 μM; for inhibition at 20 µM: Test Con. 20 μM
T1 construct: expressed in transfected cells; host or cells: HEK293 cells engineered to express TLR4
Description: Stimulation of the Toll-like receptor 4 (TLR4) was determined by assessing activation of the transcription factor NF-κB in HEK293 cells that were engineered to express TLR4. Assessment of TLR4 stimulation was based on the use of an NE-κB-inducible secreted alkaline phosphatase (SEAP) reporter system in which the SEAP reporter was under the control of a promoter inducible by NF-κB. Thus, the degree of activation of TLR4 can be indirectly quantified spectrophotometrically by measuring the amount of the SEAP reporter that is produced.
The TLR4-expressing cells were plated in HEK-Blue Detection (Invivogen, San Diego, Calif.) medium in a 96-well plate (25,000-50,000 cells/well). The cells were stimulated with lipopolysaccharides (LPS) alone or in combination with the compound of Example 1. Cell culture without LPS and the compound of Example 1 was defined as baseline control. To test whether the compound of Example 1 could block that activation of the TLR4, the cells were treated with the designated compound (10, 20 or 100 μM) and LPS (final conc. 10 ng/ml/well). After an incubation period (16-24 hours) at 37° C. in a CO2 incubator, the signals of individual samples in 96-well plates were detected at O.D.650 nm with a Molecular Devices SpectraMax i3 Imaging Cytometer. The TLR4 activity was expressed in percentage of LPS alone-stimulated cells minus baseline control.

[3] = RAW264.7, Table 2, 10 μM, read-out: inhibition of LPS induced mTNF-α release from RAW264.7 cells
[4] = Test Con. 10 μM, LPS 10 ng/ml, 4 hours, RAW264.7 cells, read-out: mTNF-α inhibition (%) mean

T1 sequence (O00206 24-839, species assumed): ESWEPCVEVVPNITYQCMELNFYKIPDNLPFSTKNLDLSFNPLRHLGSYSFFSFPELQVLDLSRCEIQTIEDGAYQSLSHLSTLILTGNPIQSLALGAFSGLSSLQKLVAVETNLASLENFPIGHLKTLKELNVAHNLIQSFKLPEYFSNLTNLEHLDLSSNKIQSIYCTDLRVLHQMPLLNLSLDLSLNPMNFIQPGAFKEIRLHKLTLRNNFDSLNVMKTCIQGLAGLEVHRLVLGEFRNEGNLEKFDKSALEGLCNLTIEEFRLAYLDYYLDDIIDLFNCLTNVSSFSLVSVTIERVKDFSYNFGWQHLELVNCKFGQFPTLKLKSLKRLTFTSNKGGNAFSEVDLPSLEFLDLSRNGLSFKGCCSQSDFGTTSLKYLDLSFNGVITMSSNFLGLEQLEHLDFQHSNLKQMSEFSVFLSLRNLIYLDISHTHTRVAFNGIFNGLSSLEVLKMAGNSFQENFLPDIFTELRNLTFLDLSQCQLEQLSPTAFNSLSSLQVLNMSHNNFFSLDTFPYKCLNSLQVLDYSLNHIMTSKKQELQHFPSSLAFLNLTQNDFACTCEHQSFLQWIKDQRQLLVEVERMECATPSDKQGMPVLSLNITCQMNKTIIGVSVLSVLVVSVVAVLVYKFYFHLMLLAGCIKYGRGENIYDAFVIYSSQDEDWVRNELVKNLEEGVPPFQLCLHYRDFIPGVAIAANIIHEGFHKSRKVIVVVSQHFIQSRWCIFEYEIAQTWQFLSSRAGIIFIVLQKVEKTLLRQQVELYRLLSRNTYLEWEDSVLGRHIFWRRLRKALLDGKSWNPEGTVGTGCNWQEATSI
T1 sequence (Q9Y6Y9 17-160 partner limits assumed, species assumed): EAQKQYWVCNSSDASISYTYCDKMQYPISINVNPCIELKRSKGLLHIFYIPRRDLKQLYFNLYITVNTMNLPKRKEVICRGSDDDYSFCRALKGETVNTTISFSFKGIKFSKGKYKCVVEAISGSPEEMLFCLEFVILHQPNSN

C=C(C)C(=O)Nc1ccccc1S(=O)(=O)Nc1ccc(F)cc1Cl [Compound 45]
inhibition at 10 µM [1, 3]: ~40%
inhibition at 10 µM [1, 4]: 41.1%
Cell Viability (%) mean (HEK293 cells; Test Con. 10 μM): 100.7%
toxic activity toward RAW264.7 cells (in words) (RAW264.7 cells): negligible to no toxic activity
Cell Viability (%) mean (RAW264.7 cells): 98.3%
inhibition at 10 µM [2]: 65.6%
activity towards TLR-4 (in words) [2]: moderate inhibitory activity

C=CC(=O)N(c1ccc(F)cc1Cl)S(=O)(=O)c1ccccc1S(C)(=O)=O [Compound 32]
inhibition at 10 µM [1, 3]: 85 to 100%
inhibition at 10 µM [1, 4]: 97.5%
Cell Viability (%) mean (HEK293 cells; Test Con. 10 μM): 84.5%
Cell Viability (%) mean (RAW264.7 cells): 48.3%
inhibition at 10 µM [2]: 100%
activity towards TLR-4 (in words) [2]: strong antagonist

C=CC(=O)N(c1ccc(F)cc1Cl)S(=O)(=O)N1CCC[C@H]1C(=O)OC [Compound 49]
inhibition at 10 µM [1, 3]: 85 to 100%
inhibition at 10 µM [1, 4]: 98.8%
Cell Viability (%) mean (HEK293 cells; Test Con. 10 μM): 108.5%
toxic activity toward RAW264.7 cells (in words) (RAW264.7 cells): negligible to no toxic activity
Cell Viability (%) mean (RAW264.7 cells): 81.6%
inhibition at 10 µM [2]: 76.2%
activity towards TLR-4 (in words) [2]: moderate inhibitory activity

C=CC(=O)N1CCCc2cccc(S(=O)(=O)Nc3ccc(F)cc3Cl)c21 [Compound 12]
inhibition at 10 µM [1, 3]: 85 to 100%
inhibition at 10 µM [1, 4]: 100%
Cell Viability (%) mean (HEK293 cells; Test Con. 10 μM): 72%
Cell Viability (%) mean (RAW264.7 cells): 25.5%
inhibition at 10 µM [2]: 98.9%
activity towards TLR-4 (in words) [2]: strong antagonist

C=CC(=O)N1CCCC[C@H]1C(=O)N(C)c1ccc(F)cc1Cl [Compound 57]
Cell Viability (%) mean (HEK293 cells; Test Con. 10 μM): 95.9%
inhibition at 10 µM [2]: 17.5%
activity towards TLR-4 (in words) [2]: mild or negligible activity

C=CC(=O)N(c1ccc(F)cc1Cl)S(=O)(=O)N1CCOC1=O [Compound 38]
inhibition at 10 µM [1, 3]: 85 to 100%
inhibition at 10 µM [1, 4]: 97.1%
Cell Viability (%) mean (HEK293 cells; Test Con. 10 μM): 61.6%
Cell Viability (%) mean (RAW264.7 cells): 48.0%
inhibition at 10 µM [2]: 100%
activity towards TLR-4 (in words) [2]: strong antagonist

C=CC(=O)N(c1ccc(F)cc1Cl)S(=O)(=O)N1CCCCC1C(=O)OC (stereo not shown) [Compound 52]
inhibition at 10 µM [1, 3]: 85 to 100%
inhibition at 10 µM [1, 4]: 97.2%
Cell Viability (%) mean (HEK293 cells; Test Con. 10 μM): 92.2%
toxic activity toward RAW264.7 cells (in words) (RAW264.7 cells): negligible to no toxic activity
Cell Viability (%) mean (RAW264.7 cells): 88.1%
inhibition at 10 µM [2]: 100%
activity towards TLR-4 (in words) [2]: strong antagonist

C=CC(=O)N(c1ccc(F)cc1Cl)S(=O)(=O)c1ccccc1C(=O)OC [Compound 24]
inhibition at 10 µM [1, 3]: 85 to 100%
inhibition at 10 µM [1, 4]: 96%
Cell Viability (%) mean (HEK293 cells; Test Con. 10 μM): 88.5%
Cell Viability (%) mean (RAW264.7 cells): 54.5%
inhibition at 10 µM [2]: 100%
activity towards TLR-4 (in words) [2]: strong antagonist

C=CC(=O)N(C1CC1)S(=O)(=O)c1ccc(F)cc1Cl [Compound 40]
inhibition at 10 µM [1, 3]: 85 to 100%
inhibition at 10 µM [1, 4]: 99.7%
Cell Viability (%) mean (HEK293 cells; Test Con. 10 μM): 85.5%
toxic activity toward RAW264.7 cells (in words) (RAW264.7 cells): negligible to no toxic activity
Cell Viability (%) mean (RAW264.7 cells): 93.5%
inhibition at 10 µM [2]: 100%
activity towards TLR-4 (in words) [2]: strong antagonist

C=CC(=O)N(c1ccc(F)cc1Cl)S(=O)(=O)Cc1ccccc1 [Compound 36]
inhibition at 10 µM [1, 3]: ~13%
inhibition at 10 µM [1, 4]: 13%
Cell Viability (%) mean (HEK293 cells; Test Con. 10 μM): 107.0%
toxic activity toward RAW264.7 cells (in words) (RAW264.7 cells): negligible to no toxic activity
Cell Viability (%) mean (RAW264.7 cells): 102.8%
inhibition at 10 µM [2]: 67.3%
activity towards TLR-4 (in words) [2]: moderate inhibitory activity

C=C(C)C(=O)N(c1ccc(F)cc1Cl)S(=O)(=O)c1ccccc1 [Compound 20]
inhibition at 10 µM [1, 3]: ~70%
inhibition at 10 µM [1, 4]: 70.9%
Cell Viability (%) mean (HEK293 cells; Test Con. 10 μM): 90.4%
toxic activity toward RAW264.7 cells (in words) (RAW264.7 cells): negligible to no toxic activity
Cell Viability (%) mean (RAW264.7 cells): 100.0%
inhibition at 10 µM [2]: 60.1%
activity towards TLR-4 (in words) [2]: moderate inhibitory activity

C=CC(=O)N1CCN(CC(=O)Nc2ccc(F)cc2)CC1 [Compound 6]
inhibition at 100 µM [2]: 17.8%
activity towards TLR-4 (in words) [2]: mild or negligible activity

C/C=C/C(=O)N1CCCc2cccc(S(=O)(=O)Nc3ccc(F)cc3Cl)c21 [Compound 13]
Cell Viability (%) mean (HEK293 cells; Test Con. 20 μM): 86.6%
inhibition at 20 µM [2]: 10.9%
activity towards TLR-4 (in words) [2]: mild or negligible activity

COC(=O)C1=CCN(CC(=O)Nc2ccc(F)cc2)CC1 [Compound 3]
inhibition at 100 µM [2]: 6.8%
activity towards TLR-4 (in words) [2]: mild or negligible activity

O=S(=O)(Nc1ccc(F)cc1Cl)c1cccc2c1N(S(=O)(=O)CCl)CCC2 [Compound 16]
Cell Viability (%) mean (HEK293 cells; Test Con. 20 μM): 96.5%
inhibition at 20 µM [2]: 18%
activity towards TLR-4 (in words) [2]: mild or negligible activity

C=CC(=O)N1CCC[C@@H]1C(=O)Nc1ccc(F)cc1Cl [Compound 65]
Cell Viability (%) mean (HEK293 cells; Test Con. 10 μM): 100.5%
inhibition at 10 µM [2]: 15.8%
activity towards TLR-4 (in words) [2]: mild or negligible activity

C=CC(=O)N1CCC[C@H]1C(=O)Nc1ccc(F)cc1Cl [Compound 61]
Cell Viability (%) mean (HEK293 cells; Test Con. 10 μM): 93.4%
inhibition at 10 µM [2]: 3.7%
activity towards TLR-4 (in words) [2]: mild or negligible activity

C=CC(=O)N(c1ccc(F)cc1Cl)S(=O)(=O)c1ccccc1OC(F)(F)F [Compound 26]
Cell Viability (%) mean (HEK293 cells; Test Con. 10 μM): 86.8%
inhibition at 10 µM [2]: 10.7%
activity towards TLR-4 (in words) [2]: mild or negligible activity
